Experimental data: US10815230B2, “Casein kinase 1 delta inhibitor” (ELECTROPHORETICS LIMITED, priority 2015, dated 2020)

Experiments:
Assay in all cases: KINOMEscan binding assay
Settings in all cases: read-out: % Ctrl @ 10000 nM
KIT (A829P) = KIT (A829P) (Homo sapiens, UniProt P10721, A829P)
PIK3C2B = PIK3C2B (Homo sapiens, UniProt O00750)
AURKB = AURKB (Homo sapiens, UniProt Q96GD4)
MAPKAPK5 = biological target: T1, MAPKAPK5 (Homo sapiens, UniProt Q8IW41)
T1 construct: T7 phage fusion (most assays) or DNA label after HEK293 expression; purchased DiscoveRx (KINOMEscan, LeadHunter Discovery services); host or cells: T7 phage in E. coli (BL21-derived) or HEK293

[1] = biological target: RSK3 Kin.Dom.1-N-terminal (Homo sapiens, UniProt Q15349)
MINK = MINK (Homo sapiens, UniProt Q8N4C8)
DAPK1 = DAPK1 (Homo sapiens, UniProt P53355)
NEK11 = NEK11 (Homo sapiens, UniProt Q8NG66)
JNK1 = JNK1 (Homo sapiens, UniProt P45983)
RIOK2 = RIOK2 (Homo sapiens, UniProt Q9BVS4)
ERK5 = ERK5 (Homo sapiens, UniProt Q13164)
PIK3CA (Q546K) = PIK3CA (Q546K) (Homo sapiens, UniProt P42336, Q546K)
[2] = biological target: ABL1 (Q252H) phosphorylated (Homo sapiens, UniProt P00519, Q252H)
GRK7 = GRK7 (Homo sapiens, UniProt Q8WTQ7)
IRAK3 = IRAK3 (Homo sapiens, UniProt Q9Y616)
ADCK3 = ADCK3 (Homo sapiens, UniProt Q8NI60)
FLT3 (D835Y) = FLT3 (D835Y) (Homo sapiens, UniProt P36888, D835Y)
TRKA = TRKA (Homo sapiens, UniProt P04629)
Chain of TRKA (P04629 33-796): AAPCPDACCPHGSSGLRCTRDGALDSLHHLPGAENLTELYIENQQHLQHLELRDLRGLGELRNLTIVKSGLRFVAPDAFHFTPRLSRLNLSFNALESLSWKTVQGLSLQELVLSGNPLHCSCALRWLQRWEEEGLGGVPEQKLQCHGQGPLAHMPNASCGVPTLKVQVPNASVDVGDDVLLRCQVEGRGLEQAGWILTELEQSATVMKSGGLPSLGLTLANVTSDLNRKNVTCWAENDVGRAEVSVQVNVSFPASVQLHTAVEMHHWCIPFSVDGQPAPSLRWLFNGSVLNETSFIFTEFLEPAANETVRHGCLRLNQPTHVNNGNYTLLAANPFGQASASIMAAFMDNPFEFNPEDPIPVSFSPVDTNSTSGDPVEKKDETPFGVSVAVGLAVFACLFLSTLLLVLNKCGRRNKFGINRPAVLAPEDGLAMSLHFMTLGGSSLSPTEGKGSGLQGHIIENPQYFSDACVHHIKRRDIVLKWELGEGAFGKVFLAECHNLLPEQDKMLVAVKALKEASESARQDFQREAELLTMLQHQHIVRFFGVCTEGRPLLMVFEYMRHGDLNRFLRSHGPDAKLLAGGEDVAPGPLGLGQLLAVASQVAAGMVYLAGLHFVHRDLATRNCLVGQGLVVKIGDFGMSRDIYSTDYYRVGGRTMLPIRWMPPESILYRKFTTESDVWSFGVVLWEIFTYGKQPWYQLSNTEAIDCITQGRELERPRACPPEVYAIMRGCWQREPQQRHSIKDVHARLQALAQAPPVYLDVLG

[3] = biological target: EGFR (L747-E749del, A750P) (Homo sapiens, UniProt P00533, A750P/DEL747-749)
Chain of EGFR (L747-E749del, A750P) (P00533 with tags, fused parts or gaps DEL747-749/A750P): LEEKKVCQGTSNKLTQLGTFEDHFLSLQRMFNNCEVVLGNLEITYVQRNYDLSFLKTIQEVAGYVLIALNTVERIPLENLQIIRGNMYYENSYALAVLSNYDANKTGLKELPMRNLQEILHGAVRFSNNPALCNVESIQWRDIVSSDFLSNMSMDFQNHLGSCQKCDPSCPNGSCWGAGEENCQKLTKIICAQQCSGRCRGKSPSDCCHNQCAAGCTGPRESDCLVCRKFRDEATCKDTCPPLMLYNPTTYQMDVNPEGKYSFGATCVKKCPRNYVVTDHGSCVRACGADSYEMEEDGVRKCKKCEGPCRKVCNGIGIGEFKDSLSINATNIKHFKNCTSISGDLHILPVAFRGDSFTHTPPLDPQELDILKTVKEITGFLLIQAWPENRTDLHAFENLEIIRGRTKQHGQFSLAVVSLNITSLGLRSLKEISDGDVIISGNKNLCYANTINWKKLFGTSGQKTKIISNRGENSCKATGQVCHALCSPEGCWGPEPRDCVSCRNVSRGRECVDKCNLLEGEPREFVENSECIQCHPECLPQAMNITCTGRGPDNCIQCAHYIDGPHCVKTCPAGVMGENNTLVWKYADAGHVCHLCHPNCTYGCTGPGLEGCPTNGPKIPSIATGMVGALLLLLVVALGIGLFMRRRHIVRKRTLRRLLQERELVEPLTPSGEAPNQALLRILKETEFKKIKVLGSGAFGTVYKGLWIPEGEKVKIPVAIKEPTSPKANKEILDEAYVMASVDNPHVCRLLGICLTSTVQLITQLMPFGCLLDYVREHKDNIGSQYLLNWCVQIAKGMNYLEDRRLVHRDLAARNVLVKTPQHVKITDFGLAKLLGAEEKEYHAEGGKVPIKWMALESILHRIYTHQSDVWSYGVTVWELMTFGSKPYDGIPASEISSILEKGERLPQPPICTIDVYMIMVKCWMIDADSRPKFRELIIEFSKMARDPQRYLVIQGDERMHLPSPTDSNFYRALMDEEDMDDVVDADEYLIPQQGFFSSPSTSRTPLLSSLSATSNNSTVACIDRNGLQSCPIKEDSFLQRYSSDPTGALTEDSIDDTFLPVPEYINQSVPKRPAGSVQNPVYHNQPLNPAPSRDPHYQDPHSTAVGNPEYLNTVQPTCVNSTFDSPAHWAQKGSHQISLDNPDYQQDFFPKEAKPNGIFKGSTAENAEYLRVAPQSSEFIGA

MET (M1250T) = MET (M1250T) (Homo sapiens, UniProt P08581, M1250T)
PRKCE = PRKCE (Homo sapiens, UniProt Q02156)
LIMK2 = LIMK2 (Homo sapiens, UniProt P53671)
DRAK2 = DRAK2 (Homo sapiens, UniProt O94768)
FGFR4 = FGFR4 (Homo sapiens, UniProt P22455)
Chain of FGFR4 (P22455 22-802): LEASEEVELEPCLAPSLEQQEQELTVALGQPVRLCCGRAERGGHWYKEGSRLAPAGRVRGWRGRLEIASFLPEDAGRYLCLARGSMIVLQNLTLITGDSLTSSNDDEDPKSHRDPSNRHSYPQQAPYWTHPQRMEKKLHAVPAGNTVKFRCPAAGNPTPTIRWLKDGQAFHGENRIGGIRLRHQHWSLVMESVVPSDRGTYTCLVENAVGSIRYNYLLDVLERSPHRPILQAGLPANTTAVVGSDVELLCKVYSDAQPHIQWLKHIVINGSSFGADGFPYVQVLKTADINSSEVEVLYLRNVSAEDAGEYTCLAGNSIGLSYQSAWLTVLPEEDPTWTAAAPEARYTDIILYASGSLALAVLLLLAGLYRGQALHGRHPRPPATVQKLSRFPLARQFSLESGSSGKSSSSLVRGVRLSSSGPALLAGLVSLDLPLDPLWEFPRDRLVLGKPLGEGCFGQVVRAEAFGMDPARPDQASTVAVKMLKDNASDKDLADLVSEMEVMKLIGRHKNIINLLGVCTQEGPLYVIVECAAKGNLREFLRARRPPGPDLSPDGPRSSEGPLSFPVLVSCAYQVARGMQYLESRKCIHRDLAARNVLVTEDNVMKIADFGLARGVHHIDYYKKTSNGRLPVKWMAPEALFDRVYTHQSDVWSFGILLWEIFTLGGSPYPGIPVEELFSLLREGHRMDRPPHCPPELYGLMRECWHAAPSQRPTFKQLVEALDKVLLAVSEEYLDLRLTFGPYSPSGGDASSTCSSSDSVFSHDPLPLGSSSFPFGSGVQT

[4] = biological target: ABL1 (E255K) phosphorylated (Homo sapiens, UniProt P00519, E255K)
MAP4K2 = biological target: T2, MAP4K2 (Homo sapiens, UniProt Q12851)
T2 construct: T7 phage fusion (most assays) or DNA label after HEK293 expression; purchased DiscoveRx (KINOMEscan, LeadHunter Discovery services); host or cells: T7 phage in E. coli (BL21-derived) or HEK293

MARK3 = MARK3 (Homo sapiens, UniProt P27448)
PRKD2 = PRKD2 (Homo sapiens, UniProt Q9BZL6)
Chain of PRKD2 (Q9BZL6 whole entry): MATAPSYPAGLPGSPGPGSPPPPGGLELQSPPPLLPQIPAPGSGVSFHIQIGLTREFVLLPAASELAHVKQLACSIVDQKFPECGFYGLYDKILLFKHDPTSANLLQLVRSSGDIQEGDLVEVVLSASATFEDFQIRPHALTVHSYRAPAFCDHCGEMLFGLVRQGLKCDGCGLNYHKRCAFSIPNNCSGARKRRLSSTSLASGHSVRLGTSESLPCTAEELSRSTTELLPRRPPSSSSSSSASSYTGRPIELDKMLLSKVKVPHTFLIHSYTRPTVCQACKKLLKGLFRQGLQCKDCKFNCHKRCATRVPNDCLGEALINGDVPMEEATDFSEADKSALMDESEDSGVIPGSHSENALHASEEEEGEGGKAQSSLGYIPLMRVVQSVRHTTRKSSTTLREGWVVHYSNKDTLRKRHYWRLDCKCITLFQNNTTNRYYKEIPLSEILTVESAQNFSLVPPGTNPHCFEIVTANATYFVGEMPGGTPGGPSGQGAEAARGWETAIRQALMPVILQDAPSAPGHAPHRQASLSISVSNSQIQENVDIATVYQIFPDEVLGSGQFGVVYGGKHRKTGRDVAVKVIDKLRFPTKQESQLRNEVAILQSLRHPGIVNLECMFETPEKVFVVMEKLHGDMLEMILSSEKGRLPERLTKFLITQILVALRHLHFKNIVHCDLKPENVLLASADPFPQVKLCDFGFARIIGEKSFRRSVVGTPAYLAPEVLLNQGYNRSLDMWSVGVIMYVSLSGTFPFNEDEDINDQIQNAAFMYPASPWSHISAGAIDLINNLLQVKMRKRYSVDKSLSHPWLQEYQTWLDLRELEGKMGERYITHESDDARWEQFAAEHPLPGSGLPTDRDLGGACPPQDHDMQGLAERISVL

PFPK5 P. falciparum = PFPK5 P. falciparum (Plasmodium falciparum, UniProt P61075)
Chain of PFPK5 P. falciparum (P61075 whole entry): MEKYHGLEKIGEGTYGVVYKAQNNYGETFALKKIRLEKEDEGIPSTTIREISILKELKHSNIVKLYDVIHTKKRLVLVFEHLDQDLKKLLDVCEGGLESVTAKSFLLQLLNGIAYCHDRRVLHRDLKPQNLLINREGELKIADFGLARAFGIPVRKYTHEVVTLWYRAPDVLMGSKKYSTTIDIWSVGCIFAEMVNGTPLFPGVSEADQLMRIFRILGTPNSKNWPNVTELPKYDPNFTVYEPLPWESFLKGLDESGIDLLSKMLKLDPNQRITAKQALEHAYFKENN

TEC = TEC (Homo sapiens, UniProt P42680)
LATS2 = LATS2 (Homo sapiens, UniProt Q9NRM7)
MYLK4 = MYLK4 (Homo sapiens, UniProt Q86YV6)
Chain of MYLK4 (Q86YV6 whole entry): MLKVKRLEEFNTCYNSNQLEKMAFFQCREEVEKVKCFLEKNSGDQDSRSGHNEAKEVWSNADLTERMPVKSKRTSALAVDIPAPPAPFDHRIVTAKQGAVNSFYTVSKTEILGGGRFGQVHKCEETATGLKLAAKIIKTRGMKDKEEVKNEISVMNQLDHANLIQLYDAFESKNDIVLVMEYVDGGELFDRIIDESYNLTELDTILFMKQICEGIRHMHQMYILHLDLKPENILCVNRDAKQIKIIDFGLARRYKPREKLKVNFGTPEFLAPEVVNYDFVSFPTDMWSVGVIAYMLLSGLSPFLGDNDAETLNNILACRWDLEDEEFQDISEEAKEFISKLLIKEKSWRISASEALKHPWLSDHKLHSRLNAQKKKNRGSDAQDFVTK

[5] = biological target: RPS6KA5 Kin.Dom.2-C-terminal (Homo sapiens, UniProt O75582)
BLK = BLK (Homo sapiens, UniProt P51451)
ERN1 = ERN1 (Homo sapiens, UniProt O75460)
CDK2 = CDK2 (Homo sapiens, UniProt P24941)
LIMK1 = LIMK1 (Homo sapiens, UniProt P53667)
STK35 = STK35 (Homo sapiens, UniProt Q8TDR2)
Chain of STK35 (Q8TDR2 whole entry): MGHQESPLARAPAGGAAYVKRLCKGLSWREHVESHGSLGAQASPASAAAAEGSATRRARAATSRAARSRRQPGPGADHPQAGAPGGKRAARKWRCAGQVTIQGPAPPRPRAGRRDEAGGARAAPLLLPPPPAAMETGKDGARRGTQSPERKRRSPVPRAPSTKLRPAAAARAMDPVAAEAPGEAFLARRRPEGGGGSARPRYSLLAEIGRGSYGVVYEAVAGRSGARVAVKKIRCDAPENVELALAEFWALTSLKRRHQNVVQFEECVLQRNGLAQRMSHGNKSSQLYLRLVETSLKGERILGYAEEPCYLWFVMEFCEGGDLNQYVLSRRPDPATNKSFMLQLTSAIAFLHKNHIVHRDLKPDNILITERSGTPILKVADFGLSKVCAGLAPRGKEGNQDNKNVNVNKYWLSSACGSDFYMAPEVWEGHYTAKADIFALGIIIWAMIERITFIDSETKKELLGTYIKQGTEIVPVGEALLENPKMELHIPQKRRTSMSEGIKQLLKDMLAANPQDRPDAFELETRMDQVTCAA

PKAC-alpha = PKAC-alpha (Homo sapiens, UniProt P17612)
[6] = biological target: EGFR (L747-T751del, Sins) (Homo sapiens, UniProt P00533, DEL747-750/T751S)

Row | SMILES | remaining binding at 10 µM (KIT (A829P)) [%] | remaining binding at 10 µM (PIK3C2B) [%] | remaining binding at 10 µM (AURKB) [%] | remaining binding at 10 µM (MAPKAPK5) [%] | remaining binding at 10 µM [1] [%] | remaining binding at 10 µM (MINK) [%] | remaining binding at 10 µM (DAPK1) [%] | remaining binding at 10 µM (NEK11) [%] | remaining binding at 10 µM (JNK1) [%] | remaining binding at 10 µM (RIOK2) [%] | remaining binding at 10 µM (ERK5) [%] | remaining binding at 10 µM (PIK3CA (Q546K)) [%] | remaining binding at 10 µM [2] [%] | remaining binding at 10 µM (GRK7) [%] | remaining binding at 10 µM (IRAK3) [%] | remaining binding at 10 µM (ADCK3) [%] | remaining binding at 10 µM (FLT3 (D835Y)) [%] | remaining binding at 10 µM (TRKA) [%] | remaining binding at 10 µM [3] [%] | remaining binding at 10 µM (MET (M1250T)) [%] | further results
1 | Nc1ncc(-c2nc3ccccc3o2)c(-c2ccncc2)n1 [Comparative Compound 324, 5-(1,3-benzoxazol-2-yl)-4-(pyridine-4-yl)pyrimidin-2-amine] | 79 | 83 | 96 | 100 | 100 | 56 | 87 | 86 | 52 | 87 | 93 | 90 | 100 | 91 | 90 | 88 | 90 | 77 | 64 | 97 | remaining binding at 10 µM (PRKCE): 95%; remaining binding at 10 µM (LIMK2): 100%; remaining binding at 10 µM (DRAK2): 87%; remaining binding at 10 µM (FGFR4): 100%; remaining binding at 10 µM [4]: 33%; remaining binding at 10 µM (MAP4K2): 100%; remaining binding at 10 µM (MARK3): 100%; remaining binding at 10 µM (PRKD2): 90%; remaining binding at 10 µM (PFPK5 P. falciparum): 100%; remaining binding at 10 µM (TEC): 94%; remaining binding at 10 µM (LATS2): 82%; remaining binding at 10 µM (MYLK4): 98%; remaining binding at 10 µM [5]: 96%; remaining binding at 10 µM (BLK): 80%; remaining binding at 10 µM (ERN1): 88%; remaining binding at 10 µM (CDK2): 100%; remaining binding at 10 µM (LIMK1): 100%; remaining binding at 10 µM (STK35): 100%; remaining binding at 10 µM (PKAC-alpha): 91%; remaining binding at 10 µM [6]: 54%
2 | CNc1c(C(N)=O)c2ccccn2c1C(=O)c1ccc(F)cc1 [Compound A, 2-methyl-amino-3-[(4-fluorophenyl)carbonyl]indolizine-1-carboxamide] | 86 | 74 | 86 | 100 | 83 | 57 | 77 | 88 | 45 | 66 | 78 | 93 | 37 | 65 | 60 | 91 | 94 | 86 | 13 | 83 | remaining binding at 10 µM (PRKCE): 96%; remaining binding at 10 µM (LIMK2): 100%; remaining binding at 10 µM (DRAK2): 87%; remaining binding at 10 µM (FGFR4): 100%; remaining binding at 10 µM [4]: 15%; remaining binding at 10 µM (MAP4K2): 100%; remaining binding at 10 µM (MARK3): 88%; remaining binding at 10 µM (PRKD2): 68%; remaining binding at 10 µM (PFPK5 P. falciparum): 100%; remaining binding at 10 µM (TEC): 88%; remaining binding at 10 µM (LATS2): 72%; remaining binding at 10 µM (MYLK4): 43%; remaining binding at 10 µM [5]: 88%; remaining binding at 10 µM (BLK): 49%; remaining binding at 10 µM (ERN1): 84%; remaining binding at 10 µM (CDK2): 85%; remaining binding at 10 µM (LIMK1): 100%; remaining binding at 10 µM (STK35): 100%; remaining binding at 10 µM (PKAC-alpha): 42%; remaining binding at 10 µM [6]: 12%
